Assay results as given in PubChem BioAssay AID2060887 (Molecular Pharmacology Branch, DTP, NCI, 2025).
Values belong to the compound of their own block, whether it stands above or below them.

System: 782815-120-R-J1-PDC complex spheroid viability
Assay: Anticancer human tumor 782815-120-R-J1-PDC patient-derived colon adenocarcinoma cell line growth inhibition [RAS]
Conditions: for IC50: curve of first compound; for viability, T/C: stronger effect = lower value
Procedure, shortened: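 Multi-cell-type spheroids: tumor cells plus HUVEC endothelial cells and mesenchymal stem cells. RAS-pathway inhibitors were combined with targeted agents, each dosed in half-log steps down from clinical Cmax, or from 10 microM when Cmax was unknown.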
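Further: spheroids exposed to compounds for 7 days before reading.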
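Wherever viability, T/C is given: 100% = DMSO vehicle control viability.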

IC50 (second compound 0.000949 µM): > 10 µM
IC50 (second compound 0.003 µM): > 10 µM
IC50 (second compound 0.00949 µM): > 10 µM
IC50 (second compound 0.03 µM): > 10 µM
IC50 (second compound 0.0949 µM): > 10 µM
IC50 (second compound 0.3 µM): > 10 µM
Structure (SMILES): Cc1nc(N2CCC3(CC2)COC(C)C3N)c(CO)nc1Sc1ccnc(N)c1Cl (stereo unspecified) + CCn1c(-c2cccnc2C(C)OC)c2c3cc(ccc31)N1CCOC(CC(NC(=O)C(C(C)C)N(C)C(=O)C3(F)CCN(C(=O)C#CC(C)(C)N(C)C)CC3)C(=O)N3CCCC(N3)C(=O)OCC(C)(C)C2)C1
viability, T/C (second compound 0.000949 µM, first compound 0.0316 µM): 108%
viability, T/C (second compound 0.000949 µM, first compound 0.1 µM): 88%
viability, T/C (second compound 0.000949 µM, first compound 0.316 µM): 99.2%
viability, T/C (second compound 0.000949 µM, first compound 1 µM): 94.2%
viability, T/C (second compound 0.000949 µM, first compound 3.16 µM): 98.6%
viability, T/C (second compound 0.000949 µM, first compound 10 µM): 93.6%
viability, T/C (second compound 0.003 µM, first compound 0.0316 µM): 93.1%
viability, T/C (second compound 0.003 µM, first compound 0.1 µM): 95.5%
viability, T/C (second compound 0.003 µM, first compound 0.316 µM): 104%
viability, T/C (second compound 0.003 µM, first compound 1 µM): 94.5%
viability, T/C (second compound 0.003 µM, first compound 3.16 µM): 96%
viability, T/C (second compound 0.003 µM, first compound 10 µM): 95.7%
viability, T/C (second compound 0.00949 µM, first compound 0.0316 µM): 95.2%
viability, T/C (second compound 0.00949 µM, first compound 0.1 µM): 95.7%
viability, T/C (second compound 0.00949 µM, first compound 0.316 µM): 91.4%
viability, T/C (second compound 0.00949 µM, first compound 1 µM): 98.9%
viability, T/C (second compound 0.00949 µM, first compound 3.16 µM): 111%
viability, T/C (second compound 0.00949 µM, first compound 10 µM): 94%
viability, T/C (second compound 0.03 µM, first compound 0.0316 µM): 101%
viability, T/C (second compound 0.03 µM, first compound 0.1 µM): 92.6%
viability, T/C (second compound 0.03 µM, first compound 0.316 µM): 92.2%
viability, T/C (second compound 0.03 µM, first compound 1 µM): 98.6%
viability, T/C (second compound 0.03 µM, first compound 3.16 µM): 102%
viability, T/C (second compound 0.03 µM, first compound 10 µM): 87.7%
viability, T/C (second compound 0.0949 µM, first compound 0.0316 µM): 94.5%
viability, T/C (second compound 0.0949 µM, first compound 0.1 µM): 99.6%
viability, T/C (second compound 0.0949 µM, first compound 0.316 µM): 103%
viability, T/C (second compound 0.0949 µM, first compound 1 µM): 95.7%
viability, T/C (second compound 0.0949 µM, first compound 3.16 µM): 101%
viability, T/C (second compound 0.0949 µM, first compound 10 µM): 90.1%
viability, T/C (second compound 0.3 µM, first compound 0.0316 µM): 93.3%
viability, T/C (second compound 0.3 µM, first compound 0.1 µM): 90.1%
viability, T/C (second compound 0.3 µM, first compound 0.316 µM): 87.5%
viability, T/C (second compound 0.3 µM, first compound 1 µM): 96%
viability, T/C (second compound 0.3 µM, first compound 3.16 µM): 101%
viability, T/C (second compound 0.3 µM, first compound 10 µM): 91%

IC50 (second compound 0.00316 µM): > 10 µM
IC50 (second compound 0.01 µM): > 10 µM
IC50 (second compound 0.0316 µM): > 10 µM
IC50 (second compound 0.1 µM): > 10 µM
IC50 (second compound 0.316 µM): > 10 µM
IC50 (second compound 1 µM): > 10 µM
Structure (SMILES): CC(C)NCC(C(=O)N1CCN(c2ncnc3c2C(C)CC3O)CC1)c1ccc(Cl)cc1 (stereo unspecified) + C=CC(=O)N1CCN(c2nc(OCC3CCCN3C)nc3c(F)c(-c4nc(N)cc(C)c4C(F)(F)F)c(Cl)cc23)C(C)C1
viability, T/C (second compound 0.00316 µM, first compound 0.0316 µM): 98.4%
viability, T/C (second compound 0.00316 µM, first compound 0.1 µM): 97%
viability, T/C (second compound 0.00316 µM, first compound 0.316 µM): 102%
viability, T/C (second compound 0.00316 µM, first compound 1 µM): 92%
viability, T/C (second compound 0.00316 µM, first compound 3.16 µM): 99%
viability, T/C (second compound 0.00316 µM, first compound 10 µM): 98.7%
viability, T/C (second compound 0.01 µM, first compound 0.0316 µM): 101%
viability, T/C (second compound 0.01 µM, first compound 0.1 µM): 93.3%
viability, T/C (second compound 0.01 µM, first compound 0.316 µM): 91.1%
viability, T/C (second compound 0.01 µM, first compound 1 µM): 93.2%
viability, T/C (second compound 0.01 µM, first compound 3.16 µM): 101%
viability, T/C (second compound 0.01 µM, first compound 10 µM): 96.9%
viability, T/C (second compound 0.0316 µM, first compound 0.0316 µM): 96.2%
viability, T/C (second compound 0.0316 µM, first compound 0.1 µM): 96.8%
viability, T/C (second compound 0.0316 µM, first compound 0.316 µM): 94.3%
viability, T/C (second compound 0.0316 µM, first compound 1 µM): 87.9%
viability, T/C (second compound 0.0316 µM, first compound 3.16 µM): 96.3%
viability, T/C (second compound 0.0316 µM, first compound 10 µM): 101%
viability, T/C (second compound 0.1 µM, first compound 0.0316 µM): 104%
viability, T/C (second compound 0.1 µM, first compound 0.1 µM): 95.2%
viability, T/C (second compound 0.1 µM, first compound 0.316 µM): 96.4%
viability, T/C (second compound 0.1 µM, first compound 1 µM): 94.5%
viability, T/C (second compound 0.1 µM, first compound 3.16 µM): 95.9%
viability, T/C (second compound 0.1 µM, first compound 10 µM): 104%
viability, T/C (second compound 0.316 µM, first compound 0.0316 µM): 106%
viability, T/C (second compound 0.316 µM, first compound 0.1 µM): 93.4%
viability, T/C (second compound 0.316 µM, first compound 0.316 µM): 93%
viability, T/C (second compound 0.316 µM, first compound 1 µM): 88.5%
viability, T/C (second compound 0.316 µM, first compound 3.16 µM): 96.7%
viability, T/C (second compound 0.316 µM, first compound 10 µM): 92.6%
viability, T/C (second compound 1 µM, first compound 0.0316 µM): 105%
viability, T/C (second compound 1 µM, first compound 0.1 µM): 100%
viability, T/C (second compound 1 µM, first compound 0.316 µM): 92.5%
viability, T/C (second compound 1 µM, first compound 1 µM): 98.9%
viability, T/C (second compound 1 µM, first compound 3.16 µM): 103%
viability, T/C (second compound 1 µM, first compound 10 µM): 99.1%

IC50 (second compound 0.0316 µM): > 0.3 µM
IC50 (second compound 0.1 µM): > 0.3 µM
IC50 (second compound 0.316 µM): > 0.3 µM
IC50 (second compound 1 µM): > 0.3 µM
IC50 (second compound 3.16 µM): > 0.3 µM
IC50 (second compound 10 µM): > 0.3 µM
Structure (SMILES): CC1(C)CCC(Nc2ncc(C(F)(F)F)c(-c3c[nH]c4c(P(C)(C)=O)c(C#N)ccc34)n2)CN1 (stereo unspecified) + C#Cc1c(F)ccc2cc(O)cc(-c3ncc4c(N5CC6CCC(C5)N6)nc(OCC56CCCN5CC(F)C6)nc4c3F)c12
viability, T/C (second compound 0.0316 µM, first compound 0.000949 µM): 98.2%
viability, T/C (second compound 0.0316 µM, first compound 0.003 µM): 101%
viability, T/C (second compound 0.0316 µM, first compound 0.00949 µM): 90.6%
viability, T/C (second compound 0.0316 µM, first compound 0.03 µM): 65.4%
viability, T/C (second compound 0.0316 µM, first compound 0.0949 µM): 58.1%
viability, T/C (second compound 0.0316 µM, first compound 0.3 µM): 60.2%
viability, T/C (second compound 0.1 µM, first compound 0.000949 µM): 93.2%
viability, T/C (second compound 0.1 µM, first compound 0.003 µM): 98.4%
viability, T/C (second compound 0.1 µM, first compound 0.00949 µM): 84.4%
viability, T/C (second compound 0.1 µM, first compound 0.03 µM): 70.2%
viability, T/C (second compound 0.1 µM, first compound 0.0949 µM): 61.2%
viability, T/C (second compound 0.1 µM, first compound 0.3 µM): 56.9%
viability, T/C (second compound 0.316 µM, first compound 0.000949 µM): 96.5%
viability, T/C (second compound 0.316 µM, first compound 0.003 µM): 92.9%
viability, T/C (second compound 0.316 µM, first compound 0.00949 µM): 90.4%
viability, T/C (second compound 0.316 µM, first compound 0.03 µM): 64.8%
viability, T/C (second compound 0.316 µM, first compound 0.0949 µM): 61.8%
viability, T/C (second compound 0.316 µM, first compound 0.3 µM): 57.9%
viability, T/C (second compound 1 µM, first compound 0.000949 µM): 95%
viability, T/C (second compound 1 µM, first compound 0.003 µM): 99.6%
viability, T/C (second compound 1 µM, first compound 0.00949 µM): 74.7%
viability, T/C (second compound 1 µM, first compound 0.03 µM): 65.2%
viability, T/C (second compound 1 µM, first compound 0.0949 µM): 64.3%
viability, T/C (second compound 1 µM, first compound 0.3 µM): 58.5%
viability, T/C (second compound 3.16 µM, first compound 0.000949 µM): 90.8%
viability, T/C (second compound 3.16 µM, first compound 0.003 µM): 94.1%
viability, T/C (second compound 3.16 µM, first compound 0.00949 µM): 80%
viability, T/C (second compound 3.16 µM, first compound 0.03 µM): 65.2%
viability, T/C (second compound 3.16 µM, first compound 0.0949 µM): 57.6%
viability, T/C (second compound 3.16 µM, first compound 0.3 µM): 63.5%
viability, T/C (second compound 10 µM, first compound 0.000949 µM): 93.9%
viability, T/C (second compound 10 µM, first compound 0.003 µM): 98.8%
viability, T/C (second compound 10 µM, first compound 0.00949 µM): 75.4%
viability, T/C (second compound 10 µM, first compound 0.03 µM): 69.6%
viability, T/C (second compound 10 µM, first compound 0.0949 µM): 65%
viability, T/C (second compound 10 µM, first compound 0.3 µM): 60.4%
